Source: patent US20220409629A1, “BENZODIAZEPINE DERIVATIVES FOR TREATING A RESPIRATORY SYNCYTIAL VIRUS (RSV) INFECTION” (priority 2019, published 2022)

What was measured:
[1] = Liver microsomal stability, human; format: in vitro ADME; conditions: pH 7.4; human liver microsomes, 0.5 mg/mL protein, 1 μM compound, NADPH; >80% remaining at 45 min denoted >140; read-out: Liver Microsomal Stability: t1/2 (min); human
Method: (§1) Compounds were subjected to the following assays to investigate liver microsomal stability, permeability and plasma protein binding.
(§2) Pooled liver microsomes were purchased from a reputable commercial supplier and stored at −80° C. prior to use. Microsomes (final protein concentration 0.5 mg/mL), 0.1 M phosphate buffer pH 7.4 and test compound (final substrate concentration 1 μM; final DMSO concentration 0.25%) were pre-incubated at 37° C. prior to the addition of NADPH (final concentration 1 mM) to initiate the reaction. The final incubation volume was 50 μL. A control incubation was included for each compound tested where 0.1 M phosphate buffer pH 7.4 was added instead of NADPH (minus NADPH). Two control compounds were included with each species. All incubations were performed singularly for each test compound. Each compound was incubated for 0, 5, 15, 30 and 45 min. The control (minus NADPH) was incubated for 45 min only. The reactions were stopped by transferring incubate into acetonitrile at the appropriate time points, in a 1:3 ratio. The termination plates are centrifuged at 3,000 rpm for 20 min at 4° C. to precipitate the protein. Following protein precipitation, the sample supernatants were combined in cassettes of up to 4 compounds, internal standard added, and samples analysed by LC-MS/MS. From a plot of ln peak area ratio (compound peak area/internal standard peak area) against time, the gradient of the line was determined. Subsequently, half-life (t1/2) and intrinsic clearance (CLint) were calculated.

[2] = Liver microsomal stability, rat; format: in vitro ADME; conditions: pH 7.4; rat liver microsomes, 0.5 mg/mL protein, 1 μM compound, NADPH; >80% remaining at 45 min denoted >140; read-out: Liver Microsomal Stability: t1/2 (min); rat
Method: as §1, §2

[3] = Cell cytotoxicity CC50; format: cell-based; conditions: human; mean of at least two experiments
[4] = test system: RSV A2; experiment: RSV plaque reduction assay; format: cell-based, respiratory syncytial virus (RSV); conditions: human respiratory syncytial virus, HepG2; Hep-G2 cells, RSV A2, mean of at least two experiments
Method: Compounds were subjected to RSV plaque reduction assays according to the following protocol.
Hep-G2 cells (ECACC, 85011430) were passaged in flasks and seeded in 24-well plates in DMEM containing antibiotics and supplemented with 10% FBS. During inoculation and subsequent incubation, cells were cultured in DMEM containing 2% FBS. 100 plaque forming unit/well of RSV (RSV A2 ECACC, 0709161v) was mixed with eight serial dilutions of compound. Subsequently, 100 μL of the virus/compound mixtures was added to confluent Hep-G2 cell monolayers. The cells and virus/compound mixtures were incubated at 37° C. in a humidified 5% CO2 incubator for 2 h prior to removal of the inoculum and addition of 1 mL of overlay (DMEM containing 2% FBS and 0.8% CMC) containing compound dilutions. The cells and were incubated at 37° C. in a humidified 5% CO2 incubator for 2 days.
Cells were washed with PBS before adding 75/25% v/v EtOH/MeOH, for 3 min. Fixative was removed and plates were washed with PBS. A pre-titrated amount of the primary antibody was added in 200 μL PBS/2% milk powder, and plates incubated for 90 min at 37° C. The plates were washed 3 times with PBS/0.05% Tween20 before addition of rabbit anti-goat horse radish peroxidase in 200 μL PBS/2% milk powder, and incubated for 1 h at 37° C. Following three wash steps with PBS/0.05% Tween20, 200 μL ready-to-use TrueBlue was added and plates were incubated at rt for 10-15 min before washing with water. After removal of water, plates were air-dried in the dark.
Plates were scanned and analysed using the Immunospot S6 Macro analyser, which is equipped with BioSpot analysis software for counting immunostained plaques (virospots). Plaque counts were used to calculate % infection relative to the mean of the plaque count in the virus control wells for RSV. The EC50 value was calculated as 50% reduction in signal, respectively, by interpolation of inhibition curves fitted with a 4-parameter nonlinear regression with a variable slope in Dotmatics. Plaque EC50 and cell toxicity CC50 values are a mean of at least two experiments and figures are rounded to whole units.

[5] = Liver microsomal stability, dog; format: in vitro ADME; conditions: pH 7.4; dog liver microsomes, 0.5 mg/mL protein, 1 μM compound, NADPH; >80% remaining at 45 min denoted >140; read-out: Liver Microsomal Stability: t1/2 (min); dog
Method: as §1, §2

| SMILES | half-life [1] [min] | half-life [2] [min] | CC50 [3] [nM] | EC50 [4] [nM] | half-life [5] [min] |
| --- | --- | --- | --- | --- | --- |
| CCNc1ccc(-c2c(C(=O)N[C@H]3N=C(c4ccccc4)c4cccc(F)c4NC3=O)cnn2C2COC2)c(F)n1 [Example 40, 5-[6-(Ethylamino)-2-fluoropyridin-3-yl]-N-[(3S)-9-fluoro-2-oxo-5-phenyl-1,3-dihydro-1,4-benzodiazepin-3-yl]-1-(oxetan-3-yl)pyrazole-4-carboxamide] | 49.6 | 81.1 | > 25000 | 67 | 72.9 |
| O=C(N[C@H]1N=C(c2ccccc2)c2ccccc2NC1=O)c1cnn(C2CCOCC2)c1-c1ccc(C2CC2)cc1F [Example 43, 5-(4-Cyclopropyl-2-fluorophenyl)-1-(oxan-4-yl)-N-[(3S)-2-oxo-5-phenyl-1,3-dihydro-1,4-benzodiazepin-3-yl]pyrazole-4-carboxamide] | 170 | 44.9 | > 25000 | 48 | 161 |
| O=C(N[C@H]1N=C(c2ccccc2)c2cccc(F)c2NC1=O)c1cnn(C2CCOCC2)c1-c1ccc(C2CC2)cc1F [Example 44, 5-(4-Cyclopropyl-2-fluorophenyl)-N-[(3S)-9-fluoro-2-oxo-5-phenyl-1,3-dihydro-1,4-benzodiazepin-3-yl]-1-(oxan-4-yl)pyrazole-4-carboxamide] | 201 | 55.9 | > 25000 | 48 | 90 |
| CCc1ccc(-c2c(C(=O)N[C@H]3N=C(c4ccccc4)c4cccc(F)c4NC3=O)cnn2C2CCOCC2)c(F)c1 [Example 47, 5-(4-Ethyl-2-fluorophenyl)-1-(oxan-4-yl)-N-[(3S)-9-fluoro-2-oxo-5-phenyl-1,3-dihydro-1,4-benzodiazepin-3-yl]pyrazole-4-carboxamide] | 105 | 33.1 | > 25000 | 30 | 81.4 |
| CCn1ncc(C(=O)N[C@H]2N=C(c3ccccc3)c3cccc(F)c3NC2=O)c1-c1cc(C2CC2)cnc1F [Example 48, 5-(5-Cyclopropyl-2-fluoropyridin-3-yl)-1-ethyl-N-[(3S)-9-fluoro-2-oxo-5-phenyl-1,3-dihydro-1,4-benzodiazepin-3-yl]pyrazole-4-carboxamide] | 355 | 118 | > 25000 | 92 | > 140 |
| O=C(N[C@H]1N=C(c2ccccc2)c2cccc(F)c2NC1=O)c1cnn(C2CCOCC2)c1-c1ccc(C2CC2)nc1F [Example 49, 5-(6-Cyclopropyl-2-fluoropyridin-3-yl)-N-[(3S)-9-fluoro-2-oxo-5-phenyl-1,3-dihydro-1,4-benzodiazepin-3-yl]-1-(oxan-4-yl)pyrazole-4-carboxamide] | 181 | 73.4 | > 25000 | 100 | 110 |
| O=C(N[C@H]1N=C(c2ccccc2)c2ccccc2NC1=O)c1cnn(C2CCOCC2)c1-c1cc(C2CC2)cnc1F [Example 50, 5-(5-Cyclopropyl-2-fluoropyridin-3-yl)-1-(oxan-4-yl)-N-[(3S)-2-oxo-5-phenyl-1,3-dihydro-1,4-benzodiazepin-3-yl]pyrazole-4-carboxamide] | 94.3 | 44.2 | > 25000 | 81 | 163 |
| O=C(N[C@H]1N=C(c2ccccc2)c2cccc(F)c2NC1=O)c1cnn(C2CCOCC2)c1-c1cc(C2CC2)cnc1F [Example 51, 5-(5-Cyclopropyl-2-fluoropyridin-3-yl)-N-[(3S)-9-fluoro-2-oxo-5-phenyl-1,3-dihydro-1,4-benzodiazepin-3-yl]-1-(oxan-4-yl)pyrazole-4-carboxamide] | 171 | 92.8 | > 7790 | 53 | 212 |
| CCc1ccc(-c2c(C(=O)N[C@H]3N=C(c4ccccc4)c4cccc(F)c4NC3=O)cnn2C2CCOCC2)c(F)n1 [Example 53, 5-(6-Ethyl-2-fluoropyridin-3-yl)-1-(oxan-4-yl)-N-[(3S)-9-fluoro-2-oxo-5-phenyl-1,3-dihydro-1,4-benzodiazepin-3-yl]pyrazole-4-carboxamide] | > 140 | 200 | > 25000 | 72 | 183 |
| CCOc1nn(CC)c(-c2ccccc2F)c1C(=O)N[C@H]1N=C(c2ccccc2)c2cccc(F)c2NC1=O [Example 55, 3-Ethoxy-1-ethyl-N-[(3S)-9-fluoro-2-oxo-5-phenyl-1,3-dihydro-1,4-benzodiazepin-3-yl]-5-(2-fluorophenyl)pyrazole-4-carboxamide] | 41.3 | 26.5 | > 25000 | 33 | 39 |
| CN1CCC(n2ncc(C(=O)N[C@H]3N=C(c4ccccc4)c4cccc(F)c4NC3=O)c2-c2ccc(NC3CC3)nc2F)CC1 [Example 57, 5-[6-(Cyclopropylamino)-2-fluoropyridin-3-yl]-N-[(3S)-9-fluoro-2-oxo-5-phenyl-1,3-dihydro-1,4-benzodiazepin-3-yl]-1-(1-methylpiperidin-4-yl)pyrazole-4-carboxamide] | 84.7 | 116 | > 9410 | 84 | 175 |
